According to patent US8404723B2, “3-cyano 5-thiazaheteroaryl-dihydropyridine and the use thereof for the treatment of cardiovascular diseases” (Bayer Intellectual Property GmbH, priority 2006, dated 2013):

Target: T1, human mineralocorticoid receptor (MR) (Homo sapiens, UniProt P08235)
T1 construct: expressed in transfected cells
T1 sequence (P08235 734-984 limits assumed): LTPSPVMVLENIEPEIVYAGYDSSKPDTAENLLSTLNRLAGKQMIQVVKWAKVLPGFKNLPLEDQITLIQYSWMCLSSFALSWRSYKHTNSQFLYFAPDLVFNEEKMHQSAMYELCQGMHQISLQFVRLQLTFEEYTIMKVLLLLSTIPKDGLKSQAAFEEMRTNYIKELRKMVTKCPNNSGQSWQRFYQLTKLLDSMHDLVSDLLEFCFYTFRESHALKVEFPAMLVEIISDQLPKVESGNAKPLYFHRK
Test: Cellular in vitro assay to determine the inhibitory MR activity (GAL4-MR chimera luciferase reporter in CHO K1 cells)
Assay type: cell-based
Conditions: aldosterone as agonist
Source text: 1. Cellular In Vitro Assay to Determine the Inhibitory MR Activity and MR Selectivity Compared with Other Steroid Hormone Receptors
Antagonists of the human mineralocorticoid receptor (MR) are identified, and the activity of the compounds described herein is quantified with the aid of a recombinant cell line. The cell is originally derived from a hamster ovary epithelial cell (Chinese Hamster Ovary, CHO K1, ATCC: American Type Culture Collection, Va. 20108, USA).
An established chimera system in which the ligand-binding domains of human steroid hormone receptors are fused to the DNA-binding domain of the yeast transcription factor GAL4 is used in this CHO K1 cell line. The GAL4-steroid hormone receptor chimeras produced in this way are cotransfected and stably expressed with a reporter construct in the CHO cells.
To generate the GAL4-steroid hormone receptor chimeras, the GAL4 DNA binding domain (amino acids 1-147) from the vector pFC2-dbd (from Stratagene) is cloned with the PCR-amplified ligand-binding domains of the mineralocorticoid receptor (MR, amino acids 734-985), of the glucocorticoid receptor (GR, amino acids 443-777), of the progesterone receptor (PR, amino acids 680-933) and of the androgen receptor (AR, amino acids 667-919) into the vector pIRES2 (from Clontech). The reporter construct, which comprises five copies of the GAL4 binding site upstream of a thymidine kinase promoter, leads to expression of firefly-luciferase (Photinus pyralis) after activation and binding of the GAL4-steroid hormone receptor chimeras by the respective specific agonists aldosterone (MR), dexamethasone (GR), progesterone (PR) and dihydrotestosterone (AR).
The MR, GR, PR and AR cells are plated out in medium (Optimem, 2.5% FCS, 2 mM glutamine, 10 mM HEPES) in 96- (or 384- or 1536-) well microtiter plates on the day before the assay and are kept in a cell incubator (96% humidity, 5% v/v CO2, 37° C.). On the day of the assay, the substances to be tested are taken up in the abovementioned medium and added to the cells. About 10 to 30 minutes after addition of the test substances, the respective specific agonists of the steroid hormone receptors are added. After a further incubation time of 5 to 6 hours, the luciferase activity is measured with the aid of a video camera. The measured relative light units as a function of the substance concentration result in a sigmoidal stimulation curve. The IC50 values are calculated with the aid of the GraphPad PRISM computer program (Version 3.02).

| IC50 | Structure (SMILES) |
| --- | --- |
| 0.018 µM | CCc1cnc(C2=C(C)NC(C)=C(C#N)C2c2ccc(C#N)cc2OC)s1 (stereo not shown) [Example 23, 4-(4-Cyano-2-methoxyphenyl)-5-(5-ethyl-1,3-thiazol-2-yl)-2,6-dimethyl-1,4-dihydropyridine-3-carbonitrile] |
| 0.01 µM | COc1cc(C#N)ccc1C1C(C#N)=C(C(F)(F)F)NC(C)=C1c1nc(C)cs1 (stereo not shown) [Example 3, 4-(4-Cyano-2-methoxyphenyl)-6-methyl-5-(4-methyl-1,3-thiazol-2-yl)-2-(trifluoromethyl)-1,4-dihydropyridine-3-carbonitrile] |
| 0.278 µM | CC1=C(C#N)C(c2cccc3ncc(C)cc23)C(c2nc(C)cs2)=C(C)N1 (stereo not shown) [Example 18, 2,6-Dimethyl-4-(3-methylquinolin-5-yl)-5-(4-methyl-1,3-thiazol-2-yl)-1,4-dihydropyridine-3-carbonitrile] |
| 0.074 µM | COc1cc(C#N)ccc1C1C(C#N)=C(C)NC(C)=C1c1nc2ccccc2s1 (stereo not shown) [Example 12, 5-(1,3-Benzothiazol-2-yl)-4-(4-cyano-2-methoxyphenyl)-2,6-dimethyl-1,4-dihydropyridine-3-carbonitrile] |
| 0.095 µM | CC1=C(C#N)C(c2cccc3c(=O)cc(C)oc23)C(c2nc(C)cs2)=C(C)N1 (stereo not shown) [Example 4, 2,6-Dimethyl-4-(2-methyl-4-oxo-4H-chromen-8-yl)-5-(4-methyl-1,3-thiazol-2-yl)-1,4-dihydro-pyridine-3-carbonitrile] |
| 0.32 µM | COc1cc(C#N)ccc1C1C(C#N)=C(C)NC(C)=C1c1nnc(C)s1 (stereo not shown) [Example 24, 4-(4-Cyano-2-methoxyphenyl)-2,6-dimethyl-5-(5-methyl-1,3,4-thiadiazol-2-yl)-1,4-dihydropyridine-3-carbonitrile] |
| 0.094 µM | COc1cc(C#N)ccc1C1C(C#N)=C(C)NC(C)=C1c1nc(C)cs1 (stereo not shown) [Example 1, 4-(4-Cyano-2-methoxyphenyl)-2,6-dimethyl-5-(4-methyl-1,3-thiazol-2-yl)-1,4-dihydropyridine-3-carbonitrile] |
